# According to patent US20240130966A1 (Aerovate Therapeutics, Inc., priority 2021, published 2024):
# Read-outs that look alike come from different tables or passages of the source.
# Experimental: Generator impactor profiles were prepared for ceramic milled powders both before and after conditioning with high humidity for a short time (80-90% RH at room temperature for ˜3 hours).
# Again, the exposure consisted of 80%-90% relative humidity at room temperature for about 3 hours.
# [1] = Post-exposure, 80%-90% relative humidity at room temperature for about 3 hours (N=9)
substance,measurement,setting,value
Imatinib,FPF of emitted dose (%),[1],66.8 +/− 4.3%
same,FPF of fill (%),[1],48.1 +/− 3.0%
same,FPF of emitted dose (%),Pre-exposure to humidity (N=7),52.3 +/− 6.3%
same,FPF of fill (%),Pre-exposure to humidity (N=7),36.2 +/− 3.5%
same,Increase in fine particle dose (stage 3-MOC levels) after humidity conditioning,"ceramic milled powders, 80-90% RH at room temperature for ~3 hours, FIG. 1",10-20 % of the capsule fill dose
same,Delivery performance after desorption compared to post-humidification powders,"humidity for 12+ hours, then desorbed at <5% RH for about 24 hours",no change in delivery performance
